Patent publication US7432262B2, “Imidazopyridazinediones, their preparation and their use as pharmaceutical compositions” (Boehringer Ingelheim International GmbH, priority 2004, dated 2008)

Target: T1, DPP-IV (Homo sapiens, UniProt P27487)
T1 construct: an extract of the human colon carcinoma cell line Caco-2 is used as the DPP IV source; endogenous in cells; host or cells: Caco-2 (human colon carcinoma), differentiated to induce DPP-IV expression; extract solubilized with Nonidet-P40
Test: DPP-IV assay with Caco-2 cell extract as DPP IV source
Type: biochemical
Details: extract of human colon carcinoma cell line Caco-2; AFC substrate 100 μM; 60 minutes, ambient temperature; 11-point curves; read-out: DPP IV inhibition IC50
Protocol: The differentiation of the cells in order to induce the DPP-IV expression was carried out in accordance with the description by Reiher et al. in an article entitled “Increased expression of intestinal cell line Caco-2” that appeared in Proc. Natl. Acad. Sci. Vol. 90, pp. 5757-5761 (1993). The cell extract was obtained from cells solubilized in a buffer (10 mM Tris HCl, 0.15 M NaCl, 0.04 t.i.u. aprotinin, 0.5% Nonidet-P40, pH 8.0) by centrifugation at 35,000 g for 30 minutes at 4° C. (to remove cell debris).
The DPP-IV assay was carried out as follows:
50 μl of substrate solution (AFC; AFC is amido-4-trifluoromethylcoumarin), final concentration 100 μM, was placed in black microtitre plates. 20 μl of assay buffer (final concentrations 50 mM Tris HCl pH 7.8, 50 mM NaCl, 1% DMSO) was pipetted therein. The reaction was started by the addition of 30 μl of solubilized Caco-2 protein (final concentration 0.14 μg of protein per well). The test substances under investigation were typically added prediluted to 20 μl, while the volume of assay buffer was then reduced accordingly. The reaction was carried out at ambient temperature, the incubation period was 60 minutes. Then the fluorescence was measured in a Victor 1420 Multilabel Counter, with the excitation wavelength at 405 nm and the emission wavelength at 535 nm. Dummy values (corresponding to 0% activity) were obtained in mixtures with no Caco-2 protein (volume replaced by assay buffer), control values (corresponding to 100% activity) were obtained in mixtures without any added substance. The potency of the test substances in question, expressed as IC50 values, were calculated from dosage/activity curves consisting of 11 measured points in each case.

T1 sequence (P27487 whole entry): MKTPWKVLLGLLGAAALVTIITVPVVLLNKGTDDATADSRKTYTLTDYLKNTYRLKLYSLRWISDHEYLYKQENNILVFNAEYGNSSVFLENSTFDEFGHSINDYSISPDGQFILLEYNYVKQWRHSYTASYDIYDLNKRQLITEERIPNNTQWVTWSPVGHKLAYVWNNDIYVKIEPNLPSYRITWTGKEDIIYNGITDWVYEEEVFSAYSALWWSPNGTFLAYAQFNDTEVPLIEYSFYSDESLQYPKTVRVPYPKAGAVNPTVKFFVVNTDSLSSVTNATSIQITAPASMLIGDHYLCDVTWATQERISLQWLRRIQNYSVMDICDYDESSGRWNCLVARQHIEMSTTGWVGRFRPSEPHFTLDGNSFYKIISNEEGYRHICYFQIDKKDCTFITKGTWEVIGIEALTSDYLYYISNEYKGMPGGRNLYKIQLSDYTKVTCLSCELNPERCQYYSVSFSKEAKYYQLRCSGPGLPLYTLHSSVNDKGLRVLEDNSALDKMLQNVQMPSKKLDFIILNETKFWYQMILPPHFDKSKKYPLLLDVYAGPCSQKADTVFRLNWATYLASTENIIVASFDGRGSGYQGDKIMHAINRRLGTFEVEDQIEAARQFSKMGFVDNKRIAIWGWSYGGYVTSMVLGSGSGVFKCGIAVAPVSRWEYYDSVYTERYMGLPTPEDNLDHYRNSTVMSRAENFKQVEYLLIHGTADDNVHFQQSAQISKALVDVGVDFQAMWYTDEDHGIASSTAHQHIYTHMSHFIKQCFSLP

Row | IC50 [nM] | SMILES
1 | 4 | CC#CCn1c(N2CCC[C@@H](N)C2)nc2c(=O)n(C)n(Cc3ccc4ccccc4n3)c(=O)c21 [1(1), (R)-1-(but-2-ynyl)-2-(3-amino-piperidin-1-yl)-5-methyl-6-(quinolin-2-ylmethyl)-5,6-dihydro-1H-imidazo[4,5-d]pyridazine-4,7-dione×2 trifluoroacetic acid]
2 | 6 | C=CCn1c(=O)c2nc(N3CCC[C@@H](N)C3)n(CC#CC)c2c(=O)n1Cc1ccc2ccccc2n1 [1(2), (R)-1-(but-2-ynyl)-2-(3-amino-piperidin-1-yl)-5-(prop-2-enyl)-6-(quinolin-2-ylmethyl)-5,6-dihydro-1H-imidazo[4,5-d]pyridazine-4,7-dione×2 trifluoroacetic acid]
3 | 14 | CC#CCn1c(N2CCC[C@@H](N)C2)nc2c(=O)n(Cc3ccccc3)n(Cc3ccc4ccccc4n3)c(=O)c21 [1(3), (R)-1-(but-2-ynyl)-2-(3-amino-piperidin-1-yl)-5-(phenylmethyl)-6-(quinolin-2-ylmethyl)-5,6-dihydro-1H-imidazo[4,5-d]pyridazine-4,7-dione×2 trifluoroacetic acid]
4 | 52 | CC#CCn1c(N2CCC[C@@H](N)C2)nc2c(=O)n(C)n(Cc3cccc4ccccc34)c(=O)c21 [1(4), (R)-1-(but-2-ynyl)-2-(3-amino-piperidin-1-yl)-5-methyl-6-(naphth-1-ylmethyl)-5,6-dihydro-1H-imidazo[4,5-d]pyridazine-4,7-dione×1 trifluoroacetic acid]
5 | 1 | CC#CCn1c(N2CCC[C@@H](N)C2)nc2c(=O)n(CC#N)n(Cc3ccc4ccccc4n3)c(=O)c21 [Example 1, (R)-1-(but-2-ynyl)-2-(3-amino-piperidin-1-yl)-5-cyanomethyl-6-(quinolin-2-ylmethyl)-5,6-dihydro-1H-imidazo[4,5-d]pyridazine-4,7-dione×2 trifluoroacetic acid]
